Consider 19 molecules from patent publication US10745382B2 (BRISTOL-MYERS SQUIBB COMPANY, priority 2015, dated 2020).

Molecules are shown by their SMILES. Like-named read-outs stand apart in the source and are kept apart here.

The assay concerns the target T1, PD-1/PD-L1 (Homo sapiens, UniProt Q9NZQ7).
T1 construct: made in house; host or cells: HEK293T
Briefly: PD-1/PD-L1 Homogenous Time-Resolved Fluorescence (HTRF) binding assay. The note with it: PD-L1-His 10 nM, PD-1-Ig 20 nM, read-out: Range or IC50. The procedure:
The ability of the compounds of formula (I) to bind to PD-L1 was investigated using a PD-1/PD-L1 Homogenous Time-Resolved Fluorescence (HTRF) binding assay.
Homogenous Time-Resolved Fluorescence (HTRF) Binding Assay.
All binding studies were performed in an HTRF assay buffer consisting of dPBS supplemented with 0.1% […] bovine serum albumin and 0.05% (v/v) Tween-20. […] HTRF detection was achieved using europium crypate-labeled anti-Ig (1 nM final) and allophycocyanin (APC) labeled anti-His (20 nM final). Antibodies were diluted in HTRF detection buffer and 5 μl was dispensed on top of the binding reaction. […] Additional binding assays were established between the human proteins PD-1-Ig/PD-L2-His (20 & 5 nM, respectively) and CD80-His/PD-L1-Ig (100 & 10 nM, respectively). […]
On the technique in general: TR-FRET usually uses a lanthanide donor and a delayed reading to cut background.

T1 sequence (Q9NZQ7 with tags, fused parts or gaps): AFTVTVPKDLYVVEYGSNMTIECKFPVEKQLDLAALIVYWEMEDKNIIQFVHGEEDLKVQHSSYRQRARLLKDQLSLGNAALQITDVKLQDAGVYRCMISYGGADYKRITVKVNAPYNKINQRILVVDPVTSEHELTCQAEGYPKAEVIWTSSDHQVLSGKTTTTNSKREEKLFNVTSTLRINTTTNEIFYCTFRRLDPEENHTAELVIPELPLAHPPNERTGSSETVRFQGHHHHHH

Usually IC50 stands for the point on the concentration scale where inhibition reaches its midpoint. Take `Cc1c(COc2cc(OCc3cncc(C#N)c3)c(CN[C@](C)(CO)C(=O)O)cc2Cl)cccc1-c1cccc(OCCCN2CCC(O)C2)c1C` (stereo in doubt) [Example 3005, (R)-2-((5-chloro-2-((5-cyanopyridin-3-yl)methoxy)-4-((3′-(3-((R)-3-hydroxypyrrolidin-1-yl)propoxy)-2,2′-dimethyl-[1,1′-biphenyl]-3-yl)methoxy)benzyl)amino)-3-hydroxy-2-methylpropanoic Acid]: under “value given as range class”, the IC50 is 0.21 to 10 nM.

`Cc1c(COc2cc(OCc3cncc(C#N)c3)c(CN3CCCC[C@H]3C(=O)O)cc2Cl)cccc1-c1cccc(OCCCN2CCC(O)C2)c1C` (stereo in doubt) [Example 3006, (S)-1-(5-chloro-2-((5-cyanopyridin-3-yl)methoxy)-4-((3′-(3-((R)-3-hydroxypyrrolidin-1-yl)propoxy)-2,2′-dimethyl-[1,1′-biphenyl]-3-yl)methoxy)benzyl)piperidine-2-carboxylic Acid]: the IC50 (value given as range class) fell in the range of 0.21 to 10 nM.

Regarding `Cc1c(COc2cc(OCc3cncc(C#N)c3)c(CNCCCN(C)C)cc2Cl)cccc1-c1cccc(OCCCN2CCC(O)C2)c1C` (stereo in doubt) [Example 3007, (R)-5-((4-chloro-2-(((3-(dimethylamino)propyl)amino)methyl)-5-((3′-(3-(3-hydroxypyrrolidin-1-yl)propoxy)-2,2′-dimethyl-[1,1′-biphenyl]-3-yl)methoxy)phenoxy)methyl)nicotinonitrile], the IC50 (value given as range class) lay within 0.21 to 10 nM.

`Cc1c(COc2cc(OCc3cncc(C#N)c3)c(CN[C@@](C)(CO)C(=O)O)cc2Cl)cccc1-c1cccc(OCCCN2CCC(O)C2)c1C#N` (stereo in doubt) [Example 3008, (S)-2-((5-chloro-4-((2′-cyano-3′-(3-((R)-3-hydroxypyrrolidin-1-yl)propoxy)-2-methyl-[1,1′-biphenyl]-3-yl)methoxy)-2-((5-cyanopyridin-3-yl)methoxy)benzyl)amino)-3-hydroxy-2-methylpropanoic Acid]: the IC50 (value given as range class) lay within 0.21 to 10 nM.

As for `Cc1c(COc2cc(OCc3cncc(C#N)c3)c(CN[C@@H](CO)C(=O)O)cc2Cl)cccc1-c1cccc(OCCCN2CCC(O)C2)c1C#N` (stereo in doubt) [Example 3009, (S)-2-((5-chloro-4-((2′-cyano-3′-(3-((R)-3-hydroxypyrrolidin-1-yl)propoxy)-2-methyl-[1,1′-biphenyl]-3-yl)methoxy)-2-((5-cyanopyridin-3-yl)methoxy)benzyl)amino)-3-hydroxypropanoic Acid], the IC50 (value given as range class) is 0.21 to 10 nM.

Turning to `Cc1c(COc2cc(OCc3cncc(C#N)c3)c(CN[C@](C)(CO)C(=O)O)cc2Cl)cccc1-c1cccc(OCCCN2CCC(O)C2)c1C#N` (stereo in doubt) [Example 3010, (R)-2-((5-chloro-4-((2′-cyano-3′-(3-((R)-3-hydroxypyrrolidin-1-yl)propoxy)-2-methyl-[1,1′-biphenyl]-3-yl)methoxy)-2-((5-cyanopyridin-3-yl)methoxy)benzyl)amino)-3-hydroxy-2-methylpropanoic Acid], for the setting “value given as range class”, the IC50 was 0.21 to 10 nM.

Take `Cc1c(COc2cc(OCc3cncc(C#N)c3)c(CN[C@@](C)(CO)C(=O)O)cc2Cl)cccc1-c1cccc(OCCCN2CCC(O)C2)c1C(F)(F)F` (stereo in doubt) [Example 3011, (S)-2-((5-chloro-2-((5-cyanopyridin-3-yl)methoxy)-4-((3′-(3-((R)-3-hydroxypyrrolidin-1-yl)propoxy)-2-methyl-2′-(trifluoromethyl)-[1,1′-biphenyl]-3-yl)methoxy)benzyl)amino)-3-hydroxy-2-methylpropanoic Acid]: the IC50 (numeric IC50) was 9 nM.

As to `Cc1c(COc2cc(OCc3cncc(C#N)c3)c(CN[C@@H](CO)C(=O)O)cc2Cl)cccc1-c1cccc(OCCCN2CCC(O)C2)c1C(F)(F)F` (stereo in doubt) [Example 3012, (S)-2-((5-chloro-2-((5-cyanopyridin-3-yl)methoxy)-4-((3′-(3-((R)-3-hydroxypyrrolidin-1-yl)propoxy)-2-methyl-2′-(trifluoromethyl)-[1,1′-biphenyl]-3-yl)methoxy)benzyl)amino)-3-hydroxypropanoic Acid], the IC50 (value given as range class) lay within 0.21 to 10 nM.

`Cc1c(COc2cc(OCc3cncc(C#N)c3)c(CN[C@](C)(CO)C(=O)O)cc2Cl)cccc1-c1cccc(OCCCN2CCC(O)C2)c1C(F)(F)F` (stereo in doubt) [Example 3013, (R)-2-((5-chloro-2-((5-cyanopyridin-3-yl)methoxy)-4-((3′-(3-((R)-3-hydroxypyrrolidin-1-yl)propoxy)-2-methyl-2′-(trifluoromethyl)-[1,1′-biphenyl]-3-yl)methoxy)benzyl)amino)-3-hydroxy-2-methylpropanoic Acid]: where the note is “value given as range class”, the IC50 was 0.21 to 10 nM.

On to `Cc1c(COc2cc(OCc3cncc(C#N)c3)c(CN3CCCC[C@H]3C(=O)O)cc2Cl)cccc1-c1cccc(OCCCN2CCC(O)C2)c1C(F)(F)F` (stereo in doubt) [Example 3014, (S)-1-(5-chloro-2-((5-cyanopyridin-3-yl)methoxy)-4-((3′-(3-((R)-3-hydroxypyrrolidin-1-yl)propoxy)-2-methyl-2′-(trifluoromethyl)-[1,1′-biphenyl]-3-yl)methoxy)benzyl)piperidine-2-carboxylic Acid], for which, where the note is “value given as range class”, the IC50 is 10 to 100 nM.

With `Cc1c(COc2cc(OCc3cncc(C#N)c3)c(CN[C@H](CO)C(=O)O)cc2Cl)cccc1-c1cccc(OCCN2CCOCC2)c1` [Example 1001, (R)-2-((5-chloro-2-((5-cyanopyridin-3-yl)methoxy)-4-((2-methyl-3′-(2-morpholinoethoxy)-[1,1′-biphenyl]-3-yl)methoxy)benzyl)amino)-3-hydroxypropanoic Acid], where the note is “value given as range class”, the IC50 was 10 to 100 nM.

As to `Cc1c(COc2cc(OCc3cncc(C#N)c3)c(CN[C@@](C)(CO)C(=O)O)cc2Cl)cccc1-c1cccc(OCCN2CCOCC2)c1` [Example 1002, (S)-2-((5-chloro-2-((5-cyanopyridin-3-yl)methoxy)-4-((2-methyl-3′-(2-morpholinoethoxy)-[1,1′-biphenyl]-3-yl)methoxy)benzyl)amino)-3-hydroxy-2-methylpropanoic Acid], the IC50 (value given as range class) was 10 to 100 nM.

Turning to `Cc1c(COc2cc(OCc3cncc(C#N)c3)c(CN[C@H](CO)C(=O)O)cc2Cl)cccc1-c1cccc(OCC(=O)N2CC[C@H](O)C2)c1` [Example 1003, (R)-2-((5-chloro-2-((5-cyanopyridin-3-yl)methoxy)-4-((3′-(2-((S)-3-hydroxypyrrolidin-1-yl)-2-oxoethoxy)-2-methyl-[1,1′-biphenyl]-3-yl)methoxy)benzyl)amino)-3-hydroxypropanoic Acid], the IC50 (value given as range class) is 10 to 100 nM.

`Cc1c(COc2cc(OCc3cncc(C#N)c3)c(CN[C@@](C)(CO)C(=O)O)cc2Cl)cccc1-c1cccc(OCC(=O)N2CC[C@H](O)C2)c1` [Example 1004, (S)-2-((5-chloro-2-((5-cyanopyridin-3-yl)methoxy)-4-((3′-(2-((S)-3-hydroxypyrrolidin-1-yl)-2-oxoethoxy)-2-methyl-[1,1′-biphenyl]-3-yl)methoxy)benzyl)amino)-3-hydroxy-2-methylpropanoic Acid]: under “value given as range class”, the IC50 lay in the range of 10 to 100 nM.

For `Cc1c(COc2cc(OCc3cncc(C#N)c3)c(CN3CCCC[C@H]3C(=O)O)cc2Cl)cccc1-c1cccc(OCC(=O)N2CC[C@H](O)C2)c1` [Example 1005, (S)-1-(5-chloro-2-((5-cyanopyridin-3-yl)methoxy)-4-((3′-(2-((S)-3-hydroxypyrrolidin-1-yl)-2-oxoethoxy)-2-methyl-[1,1′-biphenyl]-3-yl)methoxy)benzyl)piperidine-2-carboxylic Acid], the IC50 (numeric IC50) was 37 nM.

For the molecule `Cc1c(COc2cc(OCc3cncc(C#N)c3)c(CN[C@H](CO)C(=O)O)cc2Cl)cccc1-c1cccc(OCC(=O)N2CC[C@@H](O)C2)c1` [Example 1006, (R)-2-((5-chloro-2-((5-cyanopyridin-3-yl)methoxy)-4-((3′-(2-((R)-3-hydroxypyrrolidin-1-yl)-2-oxoethoxy)-2-methyl-[1,1′-biphenyl]-3-yl)methoxy)benzyl)amino)-3-hydroxypropanoic Acid], the IC50 (value given as range class) lay within 10 to 100 nM.

Consider `Cc1c(COc2cc(OCc3cncc(C#N)c3)c(CN3CCCC[C@H]3C(=O)O)cc2Cl)cccc1-c1cccc(OCC(=O)N2CC[C@@H](O)C2)c1` [Example 1007, (S)-1-(5-chloro-2-((5-cyanopyridin-3-yl)methoxy)-4-((3′-(2-((R)-3-hydroxypyrrolidin-1-yl)-2-oxoethoxy)-2-methyl-[1,1′-biphenyl]-3-yl)methoxy)benzyl)piperidine-2-carboxylic Acid], for which the IC50 (numeric IC50) turned out to be 26 nM.

For the molecule `Cc1c(COc2cc(OCc3cncc(C#N)c3)c(CN3C[C@@H](O)C[C@H]3C(=O)O)cc2Cl)cccc1-c1cccc(OCC(=O)N2CC[C@@H](O)C2)c1` [Example 1008, (2S,4S)-1-(5-chloro-2-((5-cyanopyridin-3-yl)methoxy)-4-((3′-(2-((R)-3-hydroxypyrrolidin-1-yl)-2-oxoethoxy)-2-methyl-[1,1′-biphenyl]-3-yl)methoxy)benzyl)-4-hydroxypyrrolidine-2-carboxylic Acid], the IC50 (value given as range class) fell in the range of 10 to 100 nM.

`Cc1c(COc2cc(OCc3cncc(C#N)c3)c(CN[C@H](CO)C(=O)O)cc2Cl)cccc1-c1cccc(OCCC(=O)N2CC[C@@H](O)C2)c1` [Example 1009, (R)-2-((5-chloro-2-((5-cyanopyridin-3-yl)methoxy)-4-((3′-(3-((R)-3-hydroxypyrrolidin-1-yl)-3-oxopropoxy)-2-methyl-[1,1′-biphenyl]-3-yl)methoxy)benzyl)amino)-3-hydroxypropanoic Acid]: the IC50 (value given as range class) was in the range of 0.21 to 10 nM.
